Read-outs that look alike come from different tables or passages of the source.
Assays:
[1] = tested on: SARS-CoV-2 Wuhan type (SARS-CoV-2PR-1); experiment: SARS-CoV-2 replication in A549-ACE2+/TMPRSS2+ cells, qRT-PCR; assay type: cell-based; details: Severe acute respiratory syndrome coronavirus 2, 3 dpi
[2] = tested on: SARS-CoV-2 Wuhan type (SARS-CoV-2PR-1); experiment: SARS-CoV-2 replication in Caco-2 cells, qRT-PCR; assay type: cell-based; details: Severe acute respiratory syndrome coronavirus 2, 3 dpi
[3] = tested on: SARS-CoV-2 Wuhan type (SARS-CoV-2PR-1); experiment: Quantitative immunofluorescence of SARS-CoV-2 nucleoprotein (NP) in infected Calu-3 cells; assay type: cell-based; details: 30 h treatment, increasing concentrations
Experimental: In addition, and to confirm the results obtained from the qRT-PCR analysis of the cell culture supernatants, Calu-3 cells were infected with the wildtype isolate SARS-CoV-2PR-1 at the same MOI (Figure 1) and subsequently treated with different concentrations of PAM for 30 h. Cells were fixed and further stained with a SARS-CoV-2 nucleoprotein (NP)-specific antibody. RDV was used as a positive control at 1 µM (Figure S1, see Supplementary Materials).
For immunostaining, infected Calu-3 cells were fixed with 4% PFA for 15 min. Following a washing step with PBS, cells were blocked and permeabilized overnight with 1% BSA in PBS (+0.2% Triton) and afterwards stained with a polyclonal rabbit anti-NP antibody (GeneTex, Cat. No. GTX135357, Irvine, CA, USA) for 24 h. […] For analysis, immunostaining was quantitative analyzed with a PerkinElmer VictorX4 reader (488 nm) (PerkinElmer, Waltham, MA, USA) and pictures were taken using a CTL-ELISPOT reader (Cellular Technology Ltd., Shaker Heights, OH, USA).
Figure S1. […] Quantitative immunofluorescent microscopy was performed to detect the viral nucleocapsid protein in Calu-3 cells 30 hrs post-infection with SARS-CoV-2 Wuhan type using an Alexa488-conjugated anti-SARS-CoV-2 nucleo-protein (NP)-antibody or DAPI as a control. […]

[4] = tested on: SARS-CoV-2 Wuhan type (SARS-CoV-2PR-1); experiment: SARS-CoV-2 replication in Vero B4 cells, virions in supernatant by qRT-PCR; assay type: cell-based; details: for IC50: MOI 2 × 10^−2
[5] = tested on: SARS-CoV-2 Alpha; experiment: VoC replication in Calu-3 cells, qRT-PCR; assay type: cell-based; details: Severe acute respiratory syndrome coronavirus 2
[6] = tested on: SARS-CoV-2 Wuhan type (SARS-CoV-2PR-1); experiment: SARS-CoV-2 replication in Calu-3 cells, qRT-PCR; assay type: cell-based; details: for IC50 / IC90: Severe acute respiratory syndrome coronavirus 2, Calu-3, Wuhan type, 3 dpi
[7] = tested on: SARS-CoV-2 Wuhan Type, Delta, or Omicron; experiment: Combination treatment in Calu-3 cells, summary over the three viruses, qRT-PCR; assay type: cell-based; details: single treatment
[8] = tested on: Calu-3 cells; experiment: WST-1 cell viability assay; assay type: cell-based, human; details: uninfected Calu-3, three days
Experimental: (§1) To control for potential unspecific effects of PAM treatment on cell viability, water-soluble tetrazolium salt (WST)-1 assays were performed in uninfected Vero B4, A549-ACE2/TMPRSS2+, Caco-2, or Calu-3 cells under otherwise identical conditions as the virus infection experiments. […] Staurosporine (StS) was used as a positive control at a concentration of 1 µM. DMSO as a solvent control was added in the same amount as the respective highest concentration of PAM.
(§2) Following treatment with different concentrations of PAM (PAM concentrations are indicated at the x-axis) for three days, the influence on cell viability was measured by water-soluble tetrazolium salt (WST)-1 assay. […] Staurosprine (StS, 1 µM) was used as a positive control. DMSO as solvent control was added in the same amount as in the highest concentration of PAM (100 µM (A,B); 1000 µM (C,D)).
(§3) Viability of uninfected and treated cells was assessed by the water-soluble tetrazolium salt (WST)-1 assay (Roche, Basel, Switzerland) according to the manufacturer’s instructions. Cells were treated for 72 h with various inhibitors according to the protocols of the infection experiments.

[9] = tested on: uninfected Vero B4, A549-ACE2/TMPRSS2+, Caco-2, or Calu-3 cells; experiment: WST-1 cell viability assay, all cell types; assay type: cell-based; details: three days
Experimental: as §1, §2, §3

[10] = tested on: SARS-CoV-2 VoCs Alpha, Beta, Gamma, Delta, and Omicron; experiment: VoC replication in Calu-3 cells, summary over all VoCs, qRT-PCR; assay type: cell-based; details: for IC90: Severe acute respiratory syndrome coronavirus 2, read-out: IC90, range over VoCs
[11] = tested on: Caco-2 cells; experiment: WST-1 cell viability assay; details: uninfected Caco-2, three days
[12] = tested on: SARS-CoV-2 Omicron (SARS-CoV-2OM); experiment: VoC replication in Calu-3 cells, qRT-PCR; assay type: cell-based
[13] = tested on: SARS-CoV-2 Delta; experiment: VoC replication in Calu-3 cells, qRT-PCR; assay type: cell-based; details: for IC50 / IC90: Severe acute respiratory syndrome coronavirus 2, […]
[14] = tested on: SARS-CoV-2 Wuhan type; experiment: SARS-CoV-2 replication, summary over Vero B4, A549-ACE2+/TMPRSS2+, Caco-2 and Calu-3 cells, qRT-PCR; assay type: cell-based; details: for IC90: Severe acute respiratory syndrome coronavirus 2, Wuhan type, Vero B4, A549-ACE2+/TMPRSS2+, Caco-2, Calu-3, read-out: IC90 values, range among all investigated cell lines
[15] = tested on: SARS-CoV-2 Beta; experiment: VoC replication in Calu-3 cells, qRT-PCR; assay type: cell-based; details: Severe acute respiratory syndrome coronavirus 2
[16] = tested on: SARS-CoV-2 Gamma; experiment: VoC replication in Calu-3 cells, qRT-PCR; assay type: cell-based; details: Severe acute respiratory syndrome coronavirus 2
[17] = design: method as in PMID 34580086; details: use of Pio, after a COVID-19 diagnosis, cited from earlier work
[18] = tested on: SARS-CoV-2; details: Vero E6 cells; published; cited from earlier work
[19] = tested on: SARS-CoV-2; details: Calu-3; published; cited from earlier work
[20] = Severe acute respiratory syndrome coronavirus 2, Vero B4, Wuhan type, 3 dpi
[21] = Severe acute respiratory syndrome coronavirus 2, Calu-3
[22] = Severe acute respiratory syndrome coronavirus 2, Calu-3, Calu-3, […]

| Structure (SMILES) | IC50 [1] [nM] | IC50 [2] [nM] | IC50 [4, 20] [nM] | IC50 [5] [nM] | IC90 [5] [nM] | inhibition at 0.05 µM [6, 21] [%] | IC50 [6] [nM] | IC90 [6] [nM] | TD50 [8] | IC90 [10] [nM] | TD50 [11] | IC50 [12, 22] [nM] | IC90 [12, 22] [nM] | IC50 [13] [nM] | IC90 [13] [nM] | IC90 [14] [nM] | IC50 [15] [nM] | IC90 [15] [nM] | IC50 [16] [nM] | IC90 [16] [nM] | also measured |
| --- | --- | --- | --- | --- | --- | --- | --- | --- | --- | --- | --- | --- | --- | --- | --- | --- | --- | --- | --- | --- | --- |
| Cn1c(=O)c(Oc2ccc(F)cc2F)cc2cnc(NC(CCO)CCO)nc21 [PAM, Pamapimod] | ~200 | ~250 | ~200 | ~250 | ~3000 | 33.9 | ~100 | ~3000 | ~ 1000 µM | 3000 to 4000 | ~ 1000 µM | ~250 | ~2000 | ~250 | ~4000 | 2000 to 3000 | ~250 | ~3000 | ~250 | ~3000 | IC90 [1]: ~2000 nM; IC90 [2]: ~3000 nM; SARS-CoV-2 replication within infected cells (NP staining normalized to DAPI) [3]: effectively suppressed SARS-CoV-2 replication in a dose-dependent manner; IC90 ([4]; Severe acute respiratory syndrome coronavirus 2, Vero B4, Wuhan type, 3 dpi, read-out: IC90): ~2000 nM; inhibition at 0.01 µM [6, 21]: 10.5%; reduction of virus replication, max. ([7]; 50 nM PAM, Figure 7B): ≤ 33%; impact on cell viability ([9]; concentrations up to 100 µg/mL): no impact on cell viability; IC50 ([10]; Severe acute respiratory syndrome coronavirus 2): ~250 nM; IC90 ([12]; Calu-3, […]): ~3000 nM; inhibition at 0.01 µM ([12]; Severe acute respiratory syndrome coronavirus 2, PAM 0.01 µM, Pio 0 µM, Calu-3, Fig 7F): 3.6%; inhibition at 0.05 µM ([12]; Severe acute respiratory syndrome coronavirus 2, PAM 0.05 µM, Pio 0 µM, Calu-3, Fig 7F): 28.6%; inhibition at 0.01 µM ([13]; Severe acute respiratory syndrome coronavirus 2, PAM 0.01 µM, Pio 0 µM, Fig 7D): 2.86%; inhibition at 0.05 µM ([13]; Severe acute respiratory syndrome coronavirus 2, PAM 0.05 µM, Pio 0 µM, Fig 7D): 27.6%; production of progeny virions ([14]; at a concentration of 6.25 µM, all infected cell lines): almost completely blocked |
| CCc1ccc(CCOc2ccc(CC3SC(=O)NC3=O)cc2)nc1 (centres unmarked) [Pio, Pioglitazone] | ~1000 | ~700 | ~500 | ~800 | ~15000 | 15.9 | ~800 | ~10000 | 500 to 1000 µM | 12000 to 15000 | 500 to 1000 µM | ~900 | ~10000 | ~500 | ~12000 | 8000 to 10000 | ~900 | ~15000 | ~700 | ~15000 | IC90 ([4]; Severe acute respiratory syndrome coronavirus 2, Vero): ~8000 nM; inhibition at 0.02 µM [6, 21]: 4.64%; inhibition at 0.1 µM [6, 21]: 36.9%; inhibition at 0.3 µM [6, 21]: 48.3%; hospital admissions ([17]; vs. 28.2% comparator): 20.0%; RR of hospital admissions [17]: 0.71; reduction of viral replication, max. ([7]; 300 nM Pio, Figure 7D): ≤ 48%; impact on cell viability ([9]; concentrations up to ~80 µM): no impact on cell viability; IC50 ([12]; Calu-3, […]): ~700 nM; inhibition at 0.02 µM ([12]; Severe acute respiratory syndrome coronavirus 2, PAM 0 µM, Pio 0.02 µM, Calu-3, Fig 7F): 1.44%; inhibition at 0.05 µM ([12]; Severe acute respiratory syndrome coronavirus 2, PAM 0 µM, Pio 0.05 µM, Calu-3, Fig 7F): 12.2%; inhibition at 0.1 µM ([12]; Severe acute respiratory syndrome coronavirus 2, PAM 0 µM, Pio 0.1 µM, Calu-3, Fig 7F): 27.1%; inhibition at 0.3 µM ([12]; Severe acute respiratory syndrome coronavirus 2, PAM 0 µM, Pio 0.3 µM, Calu-3, Fig 7F): 44%; inhibition at 0.02 µM ([13]; Severe acute respiratory syndrome coronavirus 2, PAM 0 µM, Pio 0.02 µM, Fig 7D): 0.48%; inhibition at 0.05 µM ([13]; Severe acute respiratory syndrome coronavirus 2, PAM 0 µM, Pio 0.05 µM, Fig 7D): 12.2%; inhibition at 0.1 µM ([13]; Severe acute respiratory syndrome coronavirus 2, PAM 0 µM, Pio 0.1 µM, Fig 7D): 32.4%; inhibition at 0.3 µM ([13]; Severe acute respiratory syndrome coronavirus 2, PAM 0 µM, Pio 0.3 µM, Fig 7D): 46.9%; SARS-CoV-2 replication ([14]; at ~80 µM, all test settings): completely suppresses |
| CCC(CC)COC(=O)[C@H](C)N[P@](=O)(OC[C@H]1O[C@@](C#N)(c2ccc3c(N)ncnn23)[C@H](O)[C@@H]1O)Oc1ccccc1 [Remdesivir] |  |  |  |  |  |  |  |  |  |  |  |  |  |  |  |  |  |  |  |  | IC90 [18]: 3000 nM; IC90 [19]: 1280 nM |
